Reference: US20180178043A1, “FOCUSTED ULTRASOUND HYPERTHERMIA” (KING'S COLLEGE LONDON, priority 2015, published 2018)
Values joined by “and” are separate entries in the source; they are usually repeats but may differ in a detail not shown here. Equal entries are not always repeated.

What was measured:
[1] = Pharmacokinetics of topotecan in blood, quantification by HPLC; format: in vivo, Balb C Mice
Procedure: Balb C Mice were injected with IgFUS-TNPs encapsulating topotecan (8 mg/kg per mouse body weight) and drug pharmacokinetics monitored by blood sample analyses. Blood samples (50-100 μL) were collected at time intervals (2 min-4 h) and transferred into pre-weighed plastic vials containing heparin (5 uL). Cold methanol (100 μL) was added to each and the mixed samples stored over dry ice or at −20° C. until required. After thawing, each vial was weighed again and the difference used to estimate then original sample volume. […] Batches of 5 samples were analysed three times using an Agilent 1100 HPLC equipped with a cooled sample chamber (8-12° C.), a guarded Thermo Hypersil 30×4.6 mm, 5 μm C18 column, a Diode Array Detector (UV/vis absorbance) and an Agilent 1260 Infinity fluorescence detector. […] Detection was by absorbance (210/254/280 nm for proteins and other biologicals; 380 nm for topotecan; all using a bandwidth of 8 nm c.p. reference at 700 nm) and fluorescence (Ex 400 nm; Em 545 nm; PMT-gain 18). Injections were 5-20 μL depending on the sample concentrations and quantifications were calculated from the fluorescence peak areas after calibration (the detector response was effectively linear over the sensitive range). Topotecan could be reliably identified even at extremely low concentrations (10-20 ng/mL) by its intrinsic fluorescence and retention time (3.33±0.03 min; N=45). […]

[2] = 7T MRI T1/T2 assessment of liposome samples and controls; format: physicochemical; design: r1 (relaxometry value): unit not given here; settings: for T1 (s) 1param / T1 (s) 3param / T1 (s) ImageJ / T2 (s) 1param / T2 (s) ImageJ / T2 (s) 3param: 7 T
Excerpt: A series of MRI T1/T2 assessment studies have been carried out using a 7 T pre-clinical MRI scanner, with the assistance of Dr Po-Wah So (James Black Centre, KCL). The focus here has been to derive reliable r1/r2 relaxivities per molar Gd(III) for liposome produced using the [Gd]DOTA.DSA, [Gd]DOTA.Ahx.DSA and [Gd]DOTA.Aoc.DSA. This is reliant on both accurate measurements of the T1/T2 effects and also the exact gadolinium concentration in the prepared liposome suspensions. The extrusion and gel filtration processes make this latter hard to estimate, so Inductively Coupled Plasma Mass Spectrometry (ICP-MS) quantification is being assessed. This is turn required testing of suitable acid digestion conditions since the lipid-chelates may not be analysed directly. For both MRI and ICP-MS, commercial Gadovist is being used a positive control contrast agent of known Gd content. Assessment of temperature, buffer salt and liposome size effects on T1/T2 are also underway.
FIGS. 22 and 23 show Example T1 and T2 brightness traces for controls and liposome samples.
Comparison of liposomes containing different lipids as measured at 7T Magnet*.

[3] = 19.6 °C, conc >0.3 mM, dil not given
[4] = 19.6 °C, dil 1 (liposomes 20 mg/mL; Gadovist 3.1 or 3 mM), Gadovist 3 mM
[5] = 19.6 °C, dil 1 (liposomes 20 mg/mL; Gadovist 3.1 or 3 mM), Gadovist 3.1 mM
[6] = 35.5 °C, conc >0.3 mM, dil not given

CC[C@@]1(O)C(=O)OCc2c1cc1n(c2=O)Cc2cc3c(CN(C)C)c(O)ccc3nc2-1 [free topotecan, topotecan]
clearance of topotecan from the blood pool ([1]; i.v. tail vein, matched concentration, followed 4 h): cleared from the blood pool in mins
fraction unbound ([1]; mouse, 'spiked' blood samples, previous results, read-out: loss of topotecan due to protein binding): 0.8 to 0.85

O=C([O-])CN1CCN(CC(=O)[O-])CCN([C@H](CO)[C@H](O)CO)CCN(CC(=O)[O-])CC1.[Gd+3] (racemic) [Gadovist]
T1 (s) 1param [2, 3]: 2.033 s
T1 (s) 3param [2, 3]: 2.061 s
T1 (s) ImageJ [2, 3]: 2.061 s
T2 (s) 1param [2, 3]: 0.206 s
T2 (s) ImageJ [2, 3]: 0.1 s
T1 (s) 1param [2, 4]: 0.09174 s
T1 (s) 3param [2, 4]: 0.07712 s
T1 (s) ImageJ [2, 4]: 0.092 s
T2 (s) 1param [2, 4]: 0.04691 s
T2 (s) 3param [2, 4]: 0.0488 s
T2 (s) ImageJ [2, 4]: 0.047 s
T1 (s) 1param [2, 5]: 0.072 s
T1 (s) 3param [2, 5]: 0.084 s
T1 (s) ImageJ [2, 5]: 0.084 s
T2 (s) 1param [2, 5]: 0.0431 s and 0.0426 s
T2 (s) 3param [2, 5]: 0.0422 s and 0.0419 s
T2 (s) ImageJ [2, 5]: 0.042 s
T1 (s) 1param [2, 6]: 2.602 s
T1 (s) 3param [2, 6]: 2.617 s
T1 (s) ImageJ [2, 6]: 2.606 s
T2 (s) 1param [2, 6]: 0.153 s
T2 (s) ImageJ [2, 6]: 0.1 s
T1 (s) 1param ([2]; 39.5 °C, dil 1 (Gadovist 3 mM)): 0.1297 s
T1 (s) 3param ([2]; 39.5 °C, dil 1 (Gadovist 3 mM)): 0.1138 s
T1 (s) ImageJ ([2]; 39.5 °C, dil 1 (Gadovist 3 mM)): 0.13 s
T2 (s) 1param ([2]; 39.5 °C, dil 1 (Gadovist 3 mM)): 0.05335 s
T2 (s) 3param ([2]; 39.5 °C, dil 1 (Gadovist 3 mM)): 0.05578 s
T2 (s) ImageJ ([2]; 39.5 °C, dil 1 (Gadovist 3 mM)): 0.053 s
r1 (relaxometry value) ([2]; measured at 7T Magnet): 4.8
